# Measured values published in patent publication US10961301B2, “Cell-penetrating anti-DNA antibodies and uses thereof inhibit DNA repair” (Yale University, priority 2011, dated 2021).
# Key:
# [1] = test system: BRCA2-deficient PEO1 ovarian cancer cells; conditions: 3 days after treatment; 3 nM doxorubicin, 10 μM 3E10
# [2] = test system: BRCA2-proficient PEO1 C4-2 ovarian cancer cells; conditions: 3 days after treatment; 3 nM doxorubicin, 10 μM 3E10
smiles,measurement,setting,value
COc1cccc2c1C(=O)c1c(O)c3c(c(O)c1C2=O)C[C@@](O)(C(=O)CO)C[C@@H]3O[C@H]1C[C@H](N)[C@H](O)[C@H](C)O1 [doxorubicin],"cell death, BRCA2-deficient cells",[1],not significantly toxic
same,"cell death, BRCA2-proficient cells",[2],not significantly toxic
